Test results taken from patent US12338199B2, “Bis-octahydrophenanthrene carboxamides and protein conjugates thereof” (REGENERON PHARMACEUTICALS, INC., priority 2017, dated 2025).
≈ marks a conversion by molar mass, not a printed value. Read-outs that look alike come from different tables or passages of the source.

Assays:
THP1/LXR-Luc cells = experiment: THP1/LXR-Luc luciferase reporter bioassay; type: cell-based; settings: Homo sapiens, THP-1, 48 hours; for EC50: read-out: Activation of THP1/LXR-Luc cells: EC50; for Emax: relative to maximum activation of free payload 9d, read-out: Activation of THP1/LXR-Luc cells: Fold of activation
Excerpt: The fold activation in the cell-based assays (as described in Example 68, below) was defined based on the maximum activation of the free payload 9d.
(§1) A bioassay was developed to assess the activity of LXR agonists after internalization of an agonist or of a ncADC into cells and binding to LXR, a nuclear receptor, using a commercially available LXR reporter (referred to as LXR-Luc) that contains the firefly luciferase gene under control by minimal CMV promoter and tandem repeats of the LXR transcriptional response element. For this assay, a THP1 cell line, which is a human monocytic leukaemia line, was engineered to express full length human Her2 (expressing amino acids M1 through V1255 of accession number NP_004439.2). The subsequent stable cell line was further transduced with a Cignal LXR Luc Reporter (Qiagen, Cat # CLS-7041L). The resulting stable cell line is referred to herein as THP1/Her2/LXR-Luc. The Her2 cell surface expression on THP1/Her2/LXR-Luc cell line was confirmed by FACS (data not shown).
Additionally, a THP1 cell line was transduced with a Cignal LXR Luc Reporter (Qiagen, Cat # CLS-7041L) without the addition of Her2. The resulting stable cell line is referred to herein as THP1/LXR-Luc. All of the antibodies used in the subsequent bioassays were assessed for their ability to internalize and release a payload on the bioassay cell line used.
(§2) This example assessed the ability of the LXR agonists provided herein, reference compounds, and anti-Her2 antibody-LXR ncADC to activate LXR. The samples were tested in the THP1/LXR-Luc/Her2 bioassay. For the assay, either THP1/LXR-Luc cells or THP1/LXR-Luc/Her2 cells were seeded onto white 96 well plates at 30,000 cells/well in media containing RPMI supplemented with 10% FBS and pencillin/streptomycin (complete media). Subsequently 3-fold serial dilutions of antibody drug conjugates, unconjugated antibodies, or free payloads were added to the cells at final concentration ranging from 100 nM to 0.01 nM. After 48-hour or 72-hour incubation, luciferase activity was determined after the addition of One-Glo™ reagent (Promega, Cat # E6130) to each well of cells. Relative light units (RLUs) were measured on a Victor luminometer (PerkinElmer) and the EC5o values were determined using a four-parameter logistic equation over a 10-point dose response curve (GraphPad Prism) (FIG. 15). The fold activation is calculated based on the maximum activation of the free payload 9d.

[1] = Water solubility and pH stability of phosphate analogs; type: physicochemical
Excerpt: The phosphoric acid-analog 17a was obtained from the treatment of phenol 9g with diphosphoryl chloride 18. Compounds 17b and 17c were obtained from the acidic deprotection of 17a with TFA.

LXR alpha = biological target: T1, LXR alpha (Homo sapiens, UniProt Q13133); experiment: LanthaScreen TR-FRET LXR alpha Coactivator Assay (cell-free binding)
T1 construct: LXR alpha or beta LBD-GST; purchased ThermoFisher PV4655
T1 sequence (Q13133 209-447 limits assumed): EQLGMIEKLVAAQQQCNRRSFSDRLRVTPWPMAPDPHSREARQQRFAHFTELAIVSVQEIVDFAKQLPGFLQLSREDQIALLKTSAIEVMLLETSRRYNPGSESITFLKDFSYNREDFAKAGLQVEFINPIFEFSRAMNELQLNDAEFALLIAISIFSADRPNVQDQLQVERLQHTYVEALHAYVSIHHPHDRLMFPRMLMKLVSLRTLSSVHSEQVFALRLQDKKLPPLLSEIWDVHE
Method: (§3) To evaluate the ability of novel LXR agonists to bind to the LXR alpha and beta receptor, a cell-free binding assay was performed using a LanthaScreen TR-FRET LXR alpha Coactivator Assay Kit (ThermoFisher, Cat # PV4655) and LXR beta Coactivator Assay Kit (ThermoFisher, Cat # PV4658). The assay was performed according to the manufacturer's instructions. Briefly, a 3-fold serial dilution of LXR agonists were prepared in 100% DMSO starting at 100 μM (100× of final). Serial dilutions were further diluted 50-fold in nuclear receptor buffer F with 5 mM DTT, and transferred to a 384-well assay plate. Next, Fluorescein-D22, LXR alpha or beta LBD-GST, and Tb anti-GST antibody was sequentially added to 384-well assay plate. The plate was then incubated at rt for 2.5 hours while being protected from light. […] The IC50 values were determined using a four-parameter logistic equation over a 12-point response curve (GraphPad Prism).

LXR beta = biological target: T2, LXR beta (Homo sapiens, UniProt P55055); experiment: LanthaScreen TR-FRET LXR beta Coactivator Assay (cell-free binding)
T2 construct: LXR alpha or beta LBD-GST; purchased ThermoFisher PV4658
T2 sequence (P55055 222-460 limits assumed): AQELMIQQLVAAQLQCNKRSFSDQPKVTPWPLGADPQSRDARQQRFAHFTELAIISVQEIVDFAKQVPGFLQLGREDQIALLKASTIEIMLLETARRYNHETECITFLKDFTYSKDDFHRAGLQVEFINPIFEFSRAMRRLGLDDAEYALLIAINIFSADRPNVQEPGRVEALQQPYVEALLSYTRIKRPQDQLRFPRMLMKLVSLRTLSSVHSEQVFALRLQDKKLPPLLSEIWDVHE
Method: as §3

LXRβ = biological target: T3, LXRβ (Homo sapiens, UniProt P55055); settings: reported in Bioconjug Chem. 2015 26(11), 2216-22; cited from earlier work
T3 sequence (P55055 1-460): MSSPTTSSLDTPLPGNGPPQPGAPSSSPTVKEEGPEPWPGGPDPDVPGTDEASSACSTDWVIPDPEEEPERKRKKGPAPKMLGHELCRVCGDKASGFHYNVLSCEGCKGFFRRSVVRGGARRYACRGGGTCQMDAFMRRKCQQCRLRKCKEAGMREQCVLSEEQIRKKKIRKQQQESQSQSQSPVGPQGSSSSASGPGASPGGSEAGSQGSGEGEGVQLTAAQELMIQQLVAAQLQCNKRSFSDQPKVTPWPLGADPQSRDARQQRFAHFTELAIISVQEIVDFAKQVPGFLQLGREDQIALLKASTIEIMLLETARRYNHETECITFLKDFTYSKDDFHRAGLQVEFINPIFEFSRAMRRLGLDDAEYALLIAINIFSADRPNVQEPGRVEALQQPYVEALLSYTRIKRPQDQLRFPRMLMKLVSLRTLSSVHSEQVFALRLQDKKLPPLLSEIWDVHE

LXRα = biological target: T4, LXRα (Homo sapiens, UniProt Q13133); settings: reported in Bioconjug Chem. 2015 26(11), 2216-22; cited from earlier work
T4 sequence (Q13133 1-447): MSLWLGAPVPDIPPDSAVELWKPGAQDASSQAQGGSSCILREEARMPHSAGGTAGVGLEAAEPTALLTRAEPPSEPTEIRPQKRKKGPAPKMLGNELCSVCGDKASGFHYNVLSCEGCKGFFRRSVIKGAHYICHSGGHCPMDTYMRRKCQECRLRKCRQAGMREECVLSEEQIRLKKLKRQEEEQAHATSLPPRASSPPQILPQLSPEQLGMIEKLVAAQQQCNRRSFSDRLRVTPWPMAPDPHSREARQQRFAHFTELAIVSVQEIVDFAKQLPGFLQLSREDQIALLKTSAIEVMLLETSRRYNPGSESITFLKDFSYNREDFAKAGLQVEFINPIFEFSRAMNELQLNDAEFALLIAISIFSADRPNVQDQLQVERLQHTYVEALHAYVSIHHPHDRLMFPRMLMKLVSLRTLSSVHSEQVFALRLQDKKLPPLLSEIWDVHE

ABCG1 = ABCG1 mRNA induction in differentiated THP-1 macrophages (TaqMan); type: cell-based, human; settings: THP1 macrophages, 24-hour treatment; magnitude in words
Method: (§4) To determine the ability of LXR agonists to activate ABCA1 and ABCG1 genes, the mRNA levels of these two genes in differentiated macrophages was measured. […] Cells were differentiated into macrophages by treatment with 100 nM Phorbol-12 myristate 13-acetate (Sigma, # P8139), which was added to the media described above, for 72 hours. […] Chloroform was then used for phase separation. The aqueous phase, containing total RNA, was purified using MagMAX™-96 for Microarrays Total RNA Isolation Kit (Ambion, Cat # AM1830) and reverse-transcribed into cDNA using SuperScript® VILO™ Master Mix (Invitrogen, Cat #11755050) as per the manufacturer's instructions. TaqMan® was performed using Gene Expression Master Mix, the ABI 7900HT Sequence Detection System (Applied Biosystems) and the primers and probes indicated below in Table 9. The GAPDH gene was used as the internal control gene to normalize any cDNA input differences.

THP1/LXR-Luc/Her2 cells = experiment: THP1/LXR-Luc/Her2 luciferase reporter bioassay; type: cell-based; settings: Homo sapiens
Excerpt: as §1, §2

ABCA1 = ABCA1 mRNA induction in differentiated THP-1 macrophages (TaqMan); type: cell-based, human; settings: THP1 macrophages, 24-hour treatment; magnitude in words
Method: as §4

Solubility in water = type: physicochemical; settings: H2O
Method: To a solution of compound LP2-6 (4.3 mg, 7.8 μmol) in anhydrous DMF (1 mL) was added HATU (3.0 mg, 7.8 μmol). The mixture was stirred at 10° C. for 10 minutes before compound LP2-5 (15 mg, 6.5 μmol) and DIPEA (1.7 mg, 13 μmol) was added. The mixture was stirred at RT for 2 hours until LP2-5 was totally consumed, as monitored by LCMS. […]

[2] = TR-FRET, 12-point curve, read-out: Cell free binding LXRα IC50
[3] = TR-FRET, 12-point curve, read-out: Cell free binding LXRβ IC50

With `C[C@]1(C(=O)NC(=O)[C@@]2(C)CCC[C@]3(C)c4cc(OP(=O)(O)O)ccc4CC[C@@H]23)CCC[C@]2(C)c3cc(N)ccc3CC[C@@H]12` [Compound 17c, (4bS,8S,8aR)-8-((1S,4aS,10aR)-6-Amino-1,4a-dimethyl-1,2,3,4,4a,9,10,10a-octahydrophenanthrene-1-carbonylcarbamoyl)-4b,8-dimethyl-4b,5,6,7,8,8a,9,10-octahydrophenanthren-3-yl dihydrogen phosphate] the EC50 (THP1/LXR-Luc cells) was no more than 1 nM, the Emax (THP1/LXR-Luc cells) was greater than 75% and the Stability ([1]; pH as given in the value, 17c converted to 17b in the presence of methanol) was “not stable at pH 5”. For the same molecule, the Solubility in water ([1]; under basic and neutral conditions) was “soluble in water”, the IC50 (LXR alpha) was greater than 100 nM and the IC50 (LXR beta) was less than 10 nM.
For `CCc1cnc2c(C(F)(F)F)cccc2c1-c1cccc(Oc2cccc(S(=O)(=O)N(C)CCN)c2)c1` [Compound 31, N-(2-Aminoethyl)-3-(3-(3-ethyl-8-(trifluoromethyl)quinolin-4-yl)phenoxy)-N-methylbenzenesulfonamide, reference compound], the “binding affinity to LXRβ” value (LXRβ) is given as 12 nM, the “binding affinity to LXRα” value (LXRα) is given as 1.5 nM and the EC50 (THP1/LXR-Luc cells) is given as 10 to 100 nM. It also gave an Emax (THP1/LXR-Luc cells) of 25 to 75%, an IC50 (LXR alpha; [2]) of less than 10 nM and an IC50 (LXR beta; [3]) of less than 10 nM.
In the case of `C[C@]1(C(=O)NC(=O)[C@@]2(C)CCC[C@]3(C)c4cc(NC(=O)CN)ccc4CC[C@@H]23)CCC[C@]2(C)c3cc(O)ccc3CC[C@@H]12` [Compound 9h, (1S,4aS,10aR)-6-(2-Aminoacetamido)-N-((1S,4aS,10aR)-6-hydroxy-1,4a-dimethyl-1,2,3,4,4a,9,10,10a-octahydrophenanthrene-1-carbonyl)-1,4a-dimethyl-1,2,3,4,4a,9,10,10a-octahydrophenanthrene-1-carboxamide], the “ABCG1 induction EC50” value (ABCG1) is reported as “sub-picomolar”, the EC50 (THP1/LXR-Luc cells) is reported as no more than 1 nM and the Emax (THP1/LXR-Luc cells) is reported as greater than 75%. The EC50 (THP1/LXR-Luc/Her2 cells; THP-1, 48 h, 48-hour time point) was 0.5 nM, the EC50 (THP1/LXR-Luc/Her2 cells; THP-1, 48 h, 48 hours, unit inferred, values correspond to M) was 0.5 nM and the EC50 (THP1/LXR-Luc/Her2 cells; THP-1, 72 h, 72-hour time point) was 0.65 nM. The EC50 (THP1/LXR-Luc/Her2 cells; THP-1, 72 h, 72 hours) was 0.65 nM, the IC50 (LXR alpha; [2]) was less than 1 nM and the “ABCA1 induction EC50” value (ABCA1) was “sub-picomolar”. The IC50 (LXR beta; [3]) was less than 1 nM.
Work on `CC(C)[C@H](NC(=O)[C@@H](CCCCNC(=O)COC1CCCCCc2c1nnn2CC1OC2OC3C(CO)OC(OC4C(CO)OC(OC5C(CO)OC(OC6C(CO)OC(OC7C(CO)OC(OC8C(CO)OC(OC9C(CO)OC(OC1C(O)C2O)C(O)C9O)C(O)C8O)C(O)C7O)C(O)C6O)C(O)C5O)C(O)C4O)C(O)C3O)NC(=O)CCOCCOCCOCCOCCNC(=O)CCC(=O)N1Cc2ccccc2C#Cc2ccccc21)C(=O)N[C@@H](C)C(=O)Nc1ccc2c(c1)[C@@]1(C)CCC[C@](C)(C(=O)NC(=O)[C@@]3(C)CCC[C@]4(C)c5cc(O)ccc5CC[C@@H]34)[C@@H]1CC2` (some centres unmarked) [LP32] yielded a solubility (Solubility in water) of 75 µg/mL (≈ 26.3 µM).
